# Where two headings read alike, the source gives them in different places.
# Key:
# Type in all cases: cell-based
# Aβ-38 = experiment: MSD Human (6E10) Ab 3-PLEX elisa, conditioned media of 2B7 cells: Aβ-38; conditions: for inhibition at 20 µM: Aβ-38, 20 μM; for IC50: Aβ-38 (superscript a)
# Method in brief: (§1)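 Confluent 2B7 cells were treated with compound serial dilutions (1% DMSO final) for 5 hours at 37° C. Conditioned media, diluted 1:1 in blocking buffer, was incubated with detection antibody overnight at 4 degrees C or 2 hours at room temp.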
# Aβ-40 = experiment: MSD Human (6E10) Ab 3-PLEX elisa, conditioned media of 2B7 cells: Aβ-40; conditions: for IC50: Aβ-40 (superscript b); for inhibition at 20 µM: Aβ-40, 20 μM
# Method in brief: as §1
# Aβ-42 = experiment: MSD Human (6E10) Ab 3-PLEX elisa, conditioned media of 2B7 cells: Aβ-42; conditions: for IC50: Aβ-42 (superscript c); for inhibition at 20 µM: Aβ-42, 20 μM
# Method in brief: as §1
# [1] = Homo sapiens, read-out: IC50 range
# [2] = Homo sapiens, read-out: 50% reduction value
smiles,measurement,setting,value
C[C@@H]1CC([C@H](Oc2ncccn2)C(C)(C)O)OC2C1[C@@]1(C)CC[C@@]34C[C@@]35CCC(OC(=O)N3CCOCC3)C(C)(C)[C@@H]5CCC4[C@]1(C)[C@H]2O (stereo partly shown),inhibition at 20 µM,Aβ-38; Homo sapiens,25 to 75%
same,IC50,Aβ-40; [1],> 10000 nM
same,IC50,Aβ-42; [2],> 10000 nM
COCC1C[C@@H](C)[C@H]2C(O1)[C@H](O)[C@@]1(C)[C@@H]3CC[C@H]4C(C)(C)C(O[C@H]5CN(C6COC6)CCO5)CC[C@@]45C[C@@]35CC[C@]21C (stereo partly shown),inhibition at 20 µM,Aβ-38; Homo sapiens,< 25%
same,inhibition at 20 µM,Aβ-40; Homo sapiens,< 25%
same,inhibition at 20 µM,Aβ-42; Homo sapiens,< 25%
C[C@@H]1CC(CN(C)[C@@H](C)C(=O)O)OC2[C@H]1[C@@]1(C)CC[C@@]34C[C@@]35CC[C@H](O[C@H]3CN(C(=O)CC6CC6)CCO3)C(C)(C)[C@@H]5CCC4[C@]1(C)[C@H]2O (stereo partly shown) [drawing 1142],inhibition at 100 µM,"Aβ-38; Homo sapiens, Aβ-38, 100 μM",25 to 75%
same,% Inh. (range),"Aβ-40; Aβ-40, 100 μM, 100 µM",E^a (100 μM) E^b (100 μM) E^c (100 μM) (% inhibition of 25-75%)
same,inhibition at 100 µM,"Aβ-42; Homo sapiens, Aβ-42, 100 μM",25 to 75%
C[C@@H]1CC(CN(C)[C@@H](C)C(=O)O)OC2[C@H]1[C@@]1(C)CC[C@@]34C[C@@]35CC[C@H](O[C@H]3CN(C(=O)CC6CC6)CCO3)C(C)(C)[C@@H]5CCC4[C@]1(C)[C@H]2O (stereo partly shown) [drawing 1155],IC50,Aβ-38; [1],< 1000 nM
same,inhibition at 100 µM,"Aβ-40; Homo sapiens, Aβ-40, 100 μM",25 to 75%
same,IC50,Aβ-42; [1],1000 to 10000 nM
CC(=O)O[C@@H]([C@H]1C[C@@H](C)C2C(O1)[C@H](O)[C@@]1(C)[C@@H]3CC[C@H]4C(C)(C)[C@@H](O[C@@H]5OC[C@@H](O)[C@H](O)[C@H]5O)CC[C@@]45C[C@@]35CC[C@]21C)C(C)(C)O (stereo partly shown) [drawing 1160],IC50,Aβ-38; [1],< 1000 nM
same,IC50,Aβ-40; [1],1000 to 10000 nM
same,IC50,Aβ-42; [2],< 1000 nM
same,IC50,Aβ-42; [1],< 1000 nM
CC(=O)OCC1C[C@@H](C)C2C(O1)[C@H](O)[C@@]1(C)[C@@H]3CC[C@H]4C(C)(C)[C@@H](O)CC[C@@]45C[C@@]35CC[C@]21C (stereo partly shown) [drawing 1161],inhibition at 20 µM,Aβ-38; Homo sapiens,25 to 75%
same,inhibition at 20 µM,Aβ-40; Homo sapiens,25 to 75%
same,inhibition at 20 µM,Aβ-42; Homo sapiens,25 to 75%
CCC(=O)O[C@@H]([C@H]1C[C@@H](C)C2C(O1)[C@H](O)[C@@]1(C)[C@@H]3CC[C@H]4C(C)(C)[C@@H](O)CC[C@@]45C[C@@]35CC[C@]21C)C(C)(C)O (stereo partly shown) [drawing 1197],IC50,Aβ-38; [2],> 10000 nM
same,IC50,Aβ-40; [2],> 10000 nM
same,IC50,Aβ-42; [2],> 10000 nM
CC(=O)O[C@@H]([C@H]1C[C@@H](C)C2C(O1)[C@H](O)[C@@]1(C)[C@@H]3CC[C@H]4C(C)(C)[C@@H](OC5CN(CC(N)=O)CCO5)CC[C@@]45C[C@@]35CC[C@]21C)C(C)(C)O (stereo partly shown) [drawing 1198],IC50,Aβ-38; [2],< 1000 nM
same,inhibition at 20 µM,Aβ-40; Homo sapiens,25 to 75%
same,IC50,Aβ-42; [2],< 1000 nM
same,IC50,Aβ-42; [1],1000 to 10000 nM
CC(=O)O[C@@H]([C@H]1C[C@@H](C)C2C(O1)[C@H](O)[C@@]1(C)[C@@H]3CC[C@H]4C(C)(C)[C@@H](OC5CN(CC(=O)N(C)C)CCO5)CC[C@@]45C[C@@]35CC[C@]21C)C(C)(C)O (stereo partly shown) [drawing 1199],IC50,Aβ-38; [2],< 1000 nM
same,IC50,Aβ-38; [1],< 1000 nM
same,IC50,Aβ-40; [2],1000 to 10000 nM
same,IC50,Aβ-42; [2],< 1000 nM
same,IC50,Aβ-42; [1],< 1000 nM
CC(=O)O[C@@H]([C@H]1C[C@@H](C)C2C(O1)[C@H](O)[C@@]1(C)[C@@H]3CC[C@H]4C(C)(C)[C@@H](OC(=O)c5cccnc5)CC[C@@]45C[C@@]35CC[C@]21C)C(C)(C)O (stereo partly shown) [drawing 1200],IC50,Aβ-38; [2],< 1000 nM
same,IC50,Aβ-38; [1],< 1000 nM
same,IC50,Aβ-40; [2],> 10000 nM
same,IC50,Aβ-42; [2],< 1000 nM
same,IC50,Aβ-42; [1],< 1000 nM
CC(=O)O[C@@H]([C@H]1C[C@@H](C)[C@H]2[C@H](O1)[C@H](O)[C@@]1(C)[C@@H]3CC[C@H]4C(C)(C)C(OC(N)=O)CC[C@@]45C[C@@]35CC[C@]21C)C(C)(C)O (stereo partly shown) [drawing 1201],IC50,Aβ-38; [2],< 1000 nM
same,IC50,Aβ-38; [1],< 1000 nM
same,inhibition at 20 µM,Aβ-40; Homo sapiens,25 to 75%
same,IC50,Aβ-42; [2],< 1000 nM
same,IC50,Aβ-42; [1],< 1000 nM
CC(=O)O[C@@H]([C@H]1C[C@@H](C)[C@H]2[C@H](O1)C(=O)[C@@]1(C)[C@@H]3CC[C@H]4C(C)(C)[C@@H](O[C@H]5CN(CC(N)=O)CCO5)CC[C@@]45C[C@@]35CC[C@]21C)C(C)(C)O [drawing 1202],IC50,Aβ-38; [2],< 1000 nM
same,IC50,Aβ-38; [1],< 1000 nM
same,IC50,Aβ-40; [2],< 1000 nM
same,inhibition at 20 µM,Aβ-42; Homo sapiens,25 to 75%
CC1CC(CO)OC2C1C1(C)CCC34CC35CCC(OC3OCC(O)C(O)C3O)C(C)(C)C5CCC4C1(C)C2O (stereo not shown) [drawing 1203],% Inh. (range),"Aβ-38; Aβ-38, 100 μM",E^a (100 μM) E^b (100 μM) (% inhibition of 25-75%)
same,% Inh. (range),"Aβ-40; Aβ-40, 100 μM",E^a (100 μM) E^b (100 μM) (% inhibition of 25-75%)
same,IC50,Aβ-42; read-out: IC50 range,> 10000 nM
CC(=O)OC(C1CC(C)C2C(O1)C(O)C1(C)C3CCC4C(C)(C)C(OC5CN(S(C)(=O)=O)CCO5)CCC45CC35CCC21C)C(C)(C)O (stereo not shown) [drawing 1204],IC50,Aβ-38; read-out: 50% reduction value,< 1000 nM
same,% Inh. (range),"Aβ-40; Aβ-40, 100 μM",E^b (100 μM) (% inhibition of 25-75%)
same,IC50,Aβ-42; read-out: 50% reduction value,< 1000 nM
same,IC50,Aβ-42; read-out: IC50 range,< 1000 nM
CC(=O)OC(C1CC(C)C2C(O1)C(O)C1(C)C3CCC4C(C)(C)C(OC(=O)C5CNC5)CCC45CC35CCC21C)C(C)(C)O (stereo not shown) [drawing 1205],IC50,Aβ-38; read-out: 50% reduction value,< 1000 nM
same,IC50,Aβ-38; read-out: IC50 range,< 1000 nM
same,IC50,Aβ-40; read-out: 50% reduction value,< 1000 nM
same,IC50,Aβ-40; read-out: IC50 range,1000 to 10000 nM
same,IC50,Aβ-42; read-out: 50% reduction value,< 1000 nM
same,IC50,Aβ-42; read-out: IC50 range,< 1000 nM

# — patent US20110251379A1, “COMPOUNDS USEFUL FOR TREATING NEURODEGENERATIVE DISORDERS” (Satori Pharmaceuticals, Inc., priority 2010, published 2011)
